Results on two compounds are retold here after US20080161396A1, “Method of control of arthropod pests of game and pet birds” (priority 2006, published 2008).

Several values for one entry are separate records, joined by “and”; a condition that tells them apart may be missing. Equal values may be shown once. Entries after “also recorded” stand apart in the source; their conditions may differ.

The test system of experiment [1] is ticks. Conditions: pour on; high tick site; cited from earlier work.
A short description of experiment [2]: Breeding success, brood size, chick survival and chick growth of red grouse (treated vs control hens/broods). The experiment is classed as in vivo, red grouse (Lagopus lagopus scoticus). The note with it: for Breeding success (%): only hens alive at the end of breeding season. The method, then: (§1) The experiment was conducted on two sites located in the North of Scotland (March-October). In outline, on each Moor, hens were either treated with permethrin leg bands or with untreated band. After hatching, chicks from treated hens were also tagged and treated with permethrin partagial bands, while chicks from control brood were tagged but not treated with permethrin. The experiment was conducted on Tullybeagles Estate in Perthshire (hereafter referred as to Moor 1) and Forest of Birse Estate on Deeside (hereafter Moor 2). Both Moors are managed for grouse (heather burning, predator control, worm control) and had low grouse densities and low productivity in recent years.
(§2) Catching and treatment of hens. In spring (18 March-6 April), 40 hens were caught on Moor 1 and 20 on Moor 2. Each was randomly assigned to one of two treatments. Half the birds caught at each site were treated (i.e., given acaracide leg bands, two per bird), or kept as control (untreated bands). Hens were fitted with radio collars (TW-3, Biotrack) to facilitate relocation. Birds were aged, weighed, wing length measured and condition score recorded. All hens were dosed with anthelminthic (Levamisole hydrochloride 3%) to remove nematode parasites. Nematodes are well known for their negative effects on grouse breeding success and survival (Hudson, 1986), so removing them standardized the birds for this possible source of variation.
Laying time. Nests were located by radio tracking and their location recorded using GPS. Clutch size was measured, and all eggs were weighed (with an electronic balance, to the nearest 0.1 g) and measured (length by width, with a caliper, to the nearest 0.1 mm). Egg density was used to estimate hatch dates (see Seivwright, 2004). If clutches were incomplete at first visit, nests were revisited.
Hatching success. Around predicted hatch date (from egg measurements), nests were located using GPS and number of hatched and un-hatched eggs were recorded. Broods were located by radio-tracking hens and chicks were found and counted with the aid of trained pointer dogs.
(§3) Brood survival to 2 weeks +/−5 days and treatment of chicks. Hens were located by radio tracking and pointer dogs were used to locate chicks. As many chicks as possible were captured. […] Brood survival to 1 month days +/−5 days. Hens were located by radio tracking and pointer dogs were used to locate chicks. As many chicks as possible were captured. […] length and tick counts (around head and neck area) were recorded. A blood sample was collected in EDTA coated eppendorfs. At 1 month, because it was difficult to ensure that all the chicks were found during daytime visits with dogs, we also located hens and broods at night by radio tracking and broods were counted using lamp. This provided the best estimate of brood size at 1 month, which was used in subsequent analyses.
Brood size at fledging. Hens were located at around 45 days post hatching. Broods were then flushed and number of chicks was counted.
(§4) Statistical analyses. Tick numbers were modeled using generalized linear mixed models with brood as a random effect and using a poisson error distribution. Tick burdens are known to be much less variable within broods than between broods (Elston et al., 2001). The seasonal pattern was investigated by fitting time as julian day (days from 1st January) and the asymptotic pattern in the data was captured using a quadratic function of julian day (julian day*julian day). The interaction between time and treatment was used to determine if the pattern of tick burden varied between treatments. The relationship between tick burden and age was investigated using chick age as number of days post hatching and the quadratic function of chick age to investigate if there was a significant asymptotic relationship between average brood tick abundance and chick age (a rise and fall in tick numbers in relation to age). […]

The nature of experiment [3]: Hen survival of treated and control red grouse hens. The note with it: for % hens alive after 6 months: alive in October. It is filed as in vivo, red grouse (Lagopus lagopus scoticus). The method, then:
as §1, §2

Experiment [4] has as its system ticks. Kind of experiment: Tick infestation of red grouse chicks after permethrin band treatment of hens and chicks (field experiment, two Moors). The experiment is classed as in vivo, Ixodes ricinus. The method, then:
This experiment assessed the effect of ticks on grouse productivity. The experiment was replicated in two sites located in NE Scotland and Perthshire. On each Moor, hens were either treated with permethrin leg bands or with untreated bands. After hatching, chicks from treated hens were also treated and tagged with a permethrin band attached to a metal patagial tag, while chicks from control broods were tagged with only the metal patagial tags.
as §1, §2, §3
as §4, with “age). Hatching success was modeled using logistic regression (binomial error structure) with the proportion of eggs that hatched as a proportion of the total clutch size as the response variable. Brood survival was modeled using logistic regression (binomial error structure) with the proportion of chicks alive as a proportion of the number of chicks that hatched as the response variable.” for “age).”

`CC1(C)[C@H](C(=O)O[C@H](C#N)c2cccc(Oc3ccccc3)c2)[C@@H]1C=C(Br)Br` [deltamethrin]: in the experiment on ticks [1], the “duration of short term effects” value was “up to 20 days” and the “time by which the effect had waned” value is recorded as at most 40 days.

`CC1(C)C(C=C(Cl)Cl)C1C(=O)OCc1cccc(Oc2ccccc2)c1` (stereo not drawn) [permethrin]: the “effect of treatment on growth (wing length or body mass) of chicks” value in experiment [2] (Moor 1 & 2 combined, FIG. 4) is “no effect; also recorded: did not differ”. Further, in experiment [2] (Moor 1, treated), the “Breeding outcome (success %)” value is listed as “(21.5%)”, the “Breeding outcome = Total number of young fledged” value worked out at 40, the “Brood size at 1 month” value stood at 3.6 ± 2.9 and the “Brood size at 2 weeks” value worked out at 6.0 ± 2.7. Besides, in experiment [2] (Moor 1, treated), the “Brood size at fledging” value was 2.7 ± 2.9, the Hatched brood size is on record as 8.5 ± 3.2 and the “Breeding success (%)” value amounted to 35.9 ± 27.2%. Also, in experiment [2] (Moor 2, treated), the “Breeding outcome (success %)” value is “(10.9%)”, the “Breeding outcome = Total number of young fledged” value stood at 5, the “Brood size at 1 month” value turned out to be 2.0 ± 2.0 and the “Brood size at 2 weeks” value was 3.4 ± 1.0. Further, in experiment [2] (Moor 2, treated), the “Brood size at fledging” value is 1.0 ± 1.2, the Hatched brood size is on record as 8.1 ± 2.4 and the “Breeding success (%)” value is recorded as 12.8 ± 13.7%. In experiment [2] (both Moors), the “effect of hen treatment on number of eggs that hatched as a proportion of the clutch size (hatching success)” value is reported as “no effect”, the “effect of treatment on brood size at 1 month of age” value is given as “no effect” and the “effect of treatment on brood size at 2 weeks of age” value is on record as “no effect”. The “effect of treatment on brood size at fledging” value in experiment [2] (both Moors, late July) was “no effect”. Besides, the “effect of treatment on chick survival rates” value in experiment [2] (discussion summary) is given as “no effect”. Also, the “hatched chicks alive at approximately 2 weeks of age” value in experiment [2] (treated group (CL=57-71%), control 58%) stood at 65%. In experiment [3] (Moor 1, treated hens), the “% hens alive after 6 months” value is 68.4% and 60%. Besides, the “% hens alive after 6 months” value in experiment [3] (Moor 2, treated hens) was 60% and 68%. Further, in experiment [3] (overall, FIG. 6), the “hen survival, treated compared with control hens” value is on record as “did not differ”. Further, the “tick infestation rates of treated chicks compared with untreated chicks from treated mothers” value in the experiment with ticks [4] (across season, FIG. 1) is on record as “significantly lower”. Moreover, in the experiment with ticks [4] (chicks carrying patagial band), the “number of chicks with patagial treatment band found with ticks” value is listed as “one”. In addition, the “average tick counts on treated chicks compared with control chicks” value in the experiment with ticks [4] (chicks with permethrin patagial band, taking into account seasonal pattern, FIG. 1) is given as “significantly lower”. In addition, the “average ticks per chick in untreated chicks from treated hens compared with control broods” value in the experiment on ticks [4] (hen treatment only (leg bands), across the season, FIG. 1) is given as “significantly lower”. In addition, in the experiment on ticks [4] (hen treatment only, by chick age, FIG. 2), the “tick infestation in untreated chicks from treated hens compared with controls in relation to chick age” value is on record as “significantly lower”. Further, in the experiment with ticks [4] (hen treatment only, discussion summary), the “tick infestation levels in untreated chicks from treated hens” value was “very low”. The “peak tick numbers in untreated chicks from treated hens relative to controls” value with ticks [4] (hen treatment only, fraction of that found in controls) is “about one third”. Moreover, in the experiment on ticks [4] (hen treatment only, seasonal pattern), the “peak tick numbers in untreated chicks from treated hens” value is listed as “around 4 ticks per chick”. Moreover, the “tick infestation rates of treated chicks compared with untreated chicks from treated mothers” value in the experiment on ticks [4] (in relation to chick age) was “no significant difference”. Further, the “maximum mean infestation rate in the treated group” value in the experiment with ticks [4] (treated chicks, age 0 to 55 days, FIG. 2, control around 12) is on record as “less than 2 ticks per chick”. The “tick numbers of treated chicks compared with controls in relation to age” value in the experiment with ticks [4] (treated chicks, age range 0 to 55 days, FIG. 2) is recorded as “significantly lower”. Further, in the experiment on ticks [4] (treated chicks, discussion summary), the “tick infestation after directly treating chicks with acaracide” value is reported as “negligible levels”. Further, the “peak average tick numbers per chick in the treated group” value in the experiment with ticks [4] (treated chicks, seasonal pattern, FIG. 1, control peak around 13) is listed as 2 ticks per chick per brood.
